Key:
[1] = target: T1, Alpha-1A adrenergic receptor (Homo sapiens, UniProt P35348); format: functional, cell-based
T1 sequence (P35348 whole entry): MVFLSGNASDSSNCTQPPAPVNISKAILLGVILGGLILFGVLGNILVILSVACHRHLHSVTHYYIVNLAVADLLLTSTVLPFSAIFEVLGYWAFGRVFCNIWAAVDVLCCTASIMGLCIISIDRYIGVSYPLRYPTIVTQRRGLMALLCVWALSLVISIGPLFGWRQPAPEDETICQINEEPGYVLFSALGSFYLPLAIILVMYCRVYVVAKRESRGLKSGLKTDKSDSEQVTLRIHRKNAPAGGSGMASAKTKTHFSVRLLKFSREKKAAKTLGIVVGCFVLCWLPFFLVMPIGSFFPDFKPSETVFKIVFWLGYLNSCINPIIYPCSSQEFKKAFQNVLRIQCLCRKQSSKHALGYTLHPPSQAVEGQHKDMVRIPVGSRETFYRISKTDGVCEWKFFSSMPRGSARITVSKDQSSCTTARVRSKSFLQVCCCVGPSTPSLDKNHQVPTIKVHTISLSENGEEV

[2] = target: Sodium-dependent dopamine transporter (Homo sapiens, UniProt Q01959)
Sodium-dependent dopamine transporter, sequence (Q01959 whole entry): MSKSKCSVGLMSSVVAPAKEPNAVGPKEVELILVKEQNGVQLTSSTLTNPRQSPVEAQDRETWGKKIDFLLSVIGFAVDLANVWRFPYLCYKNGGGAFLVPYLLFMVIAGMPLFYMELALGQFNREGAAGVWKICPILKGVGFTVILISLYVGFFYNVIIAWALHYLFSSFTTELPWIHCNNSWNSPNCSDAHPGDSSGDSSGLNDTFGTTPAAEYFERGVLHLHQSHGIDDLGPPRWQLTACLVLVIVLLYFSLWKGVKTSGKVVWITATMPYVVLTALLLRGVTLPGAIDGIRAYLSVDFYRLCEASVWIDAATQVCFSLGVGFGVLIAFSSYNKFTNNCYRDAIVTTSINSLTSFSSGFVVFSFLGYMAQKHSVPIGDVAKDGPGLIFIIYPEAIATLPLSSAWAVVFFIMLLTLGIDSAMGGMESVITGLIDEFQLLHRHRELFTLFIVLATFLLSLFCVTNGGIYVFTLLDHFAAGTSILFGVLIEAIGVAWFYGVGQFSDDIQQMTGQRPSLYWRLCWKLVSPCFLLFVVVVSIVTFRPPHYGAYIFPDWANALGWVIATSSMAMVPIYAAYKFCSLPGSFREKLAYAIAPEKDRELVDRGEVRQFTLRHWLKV

[3] = target: Mu-type opioid receptor (Homo sapiens, UniProt P35372)
Mu-type opioid receptor, sequence (P35372 whole entry): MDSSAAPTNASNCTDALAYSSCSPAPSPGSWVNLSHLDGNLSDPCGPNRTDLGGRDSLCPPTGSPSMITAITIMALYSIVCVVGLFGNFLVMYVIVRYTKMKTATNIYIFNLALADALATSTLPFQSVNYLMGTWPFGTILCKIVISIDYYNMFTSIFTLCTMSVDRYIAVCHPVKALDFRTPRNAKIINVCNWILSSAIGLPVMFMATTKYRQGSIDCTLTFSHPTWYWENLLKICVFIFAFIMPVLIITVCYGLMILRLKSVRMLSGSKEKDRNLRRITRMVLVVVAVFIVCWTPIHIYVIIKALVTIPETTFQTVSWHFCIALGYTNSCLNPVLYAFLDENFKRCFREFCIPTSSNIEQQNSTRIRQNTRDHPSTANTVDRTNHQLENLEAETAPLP

[4] = target: T2, Gastrin/cholecystokinin type B receptor (Homo sapiens, UniProt P32239)
T2 sequence (P32239 whole entry): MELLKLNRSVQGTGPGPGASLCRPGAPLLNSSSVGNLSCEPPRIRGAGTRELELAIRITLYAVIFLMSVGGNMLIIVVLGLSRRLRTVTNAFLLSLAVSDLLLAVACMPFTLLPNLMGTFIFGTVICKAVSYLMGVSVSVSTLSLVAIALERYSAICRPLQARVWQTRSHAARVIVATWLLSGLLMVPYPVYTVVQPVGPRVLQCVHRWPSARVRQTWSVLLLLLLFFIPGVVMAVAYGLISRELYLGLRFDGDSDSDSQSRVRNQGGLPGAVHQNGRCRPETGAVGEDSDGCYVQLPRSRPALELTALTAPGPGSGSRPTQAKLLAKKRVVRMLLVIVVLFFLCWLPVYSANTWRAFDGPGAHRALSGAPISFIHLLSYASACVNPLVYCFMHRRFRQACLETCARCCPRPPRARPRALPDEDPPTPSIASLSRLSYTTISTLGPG

[5] = target: Voltage-dependent L-type calcium channel subunit alpha-1C (Rattus norvegicus, UniProt P22002); format: functional
[6] = target: Sodium-dependent noradrenaline transporter (Homo sapiens, UniProt P23975)
Sodium-dependent noradrenaline transporter, sequence (P23975 whole entry): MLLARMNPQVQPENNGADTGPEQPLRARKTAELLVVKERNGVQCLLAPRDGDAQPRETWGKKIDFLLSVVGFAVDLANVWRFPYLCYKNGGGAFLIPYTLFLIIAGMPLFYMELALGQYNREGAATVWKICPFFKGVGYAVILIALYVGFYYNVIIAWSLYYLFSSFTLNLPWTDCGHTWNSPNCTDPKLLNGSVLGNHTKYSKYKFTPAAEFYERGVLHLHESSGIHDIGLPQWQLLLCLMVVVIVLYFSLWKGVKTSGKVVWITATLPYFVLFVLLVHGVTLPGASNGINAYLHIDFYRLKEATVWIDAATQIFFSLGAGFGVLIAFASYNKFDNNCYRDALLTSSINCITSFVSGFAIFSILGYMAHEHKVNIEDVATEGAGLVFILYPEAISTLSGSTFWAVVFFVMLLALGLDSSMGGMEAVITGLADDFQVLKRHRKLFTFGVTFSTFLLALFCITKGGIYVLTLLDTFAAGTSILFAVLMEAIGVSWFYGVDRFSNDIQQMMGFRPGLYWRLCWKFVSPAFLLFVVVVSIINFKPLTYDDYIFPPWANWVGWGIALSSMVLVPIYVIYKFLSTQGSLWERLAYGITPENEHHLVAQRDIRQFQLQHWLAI

[7] = target: Kappa-type opioid receptor (Homo sapiens, UniProt P41145)
Kappa-type opioid receptor, sequence (P41145 whole entry): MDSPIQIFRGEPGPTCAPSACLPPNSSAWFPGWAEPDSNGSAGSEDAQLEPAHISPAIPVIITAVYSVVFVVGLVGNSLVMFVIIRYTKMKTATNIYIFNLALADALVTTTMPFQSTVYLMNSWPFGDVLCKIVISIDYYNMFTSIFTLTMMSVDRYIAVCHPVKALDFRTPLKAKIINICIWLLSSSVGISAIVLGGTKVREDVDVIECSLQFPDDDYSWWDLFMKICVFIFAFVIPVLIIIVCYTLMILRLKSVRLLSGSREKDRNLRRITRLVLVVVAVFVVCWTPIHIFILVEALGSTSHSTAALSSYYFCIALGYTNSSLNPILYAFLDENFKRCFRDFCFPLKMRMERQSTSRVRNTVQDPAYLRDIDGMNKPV

[8] = target: T3, Adenosine receptor A3 (Homo sapiens, UniProt P0DMS8)
T3 sequence (P0DMS8 whole entry): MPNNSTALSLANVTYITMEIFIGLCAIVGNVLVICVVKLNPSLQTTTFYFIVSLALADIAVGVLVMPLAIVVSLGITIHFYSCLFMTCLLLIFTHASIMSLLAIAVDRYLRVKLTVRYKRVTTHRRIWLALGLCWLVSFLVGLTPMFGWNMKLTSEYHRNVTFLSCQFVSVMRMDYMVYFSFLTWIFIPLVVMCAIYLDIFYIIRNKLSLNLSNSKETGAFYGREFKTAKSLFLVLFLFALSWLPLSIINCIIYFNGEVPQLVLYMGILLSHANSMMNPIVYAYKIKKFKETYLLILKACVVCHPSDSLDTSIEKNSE

[9] = target: T4, Prostaglandin G/H synthase 1 (Rattus norvegicus, UniProt Q63921); format: functional
T4 sequence (Q63921 whole entry): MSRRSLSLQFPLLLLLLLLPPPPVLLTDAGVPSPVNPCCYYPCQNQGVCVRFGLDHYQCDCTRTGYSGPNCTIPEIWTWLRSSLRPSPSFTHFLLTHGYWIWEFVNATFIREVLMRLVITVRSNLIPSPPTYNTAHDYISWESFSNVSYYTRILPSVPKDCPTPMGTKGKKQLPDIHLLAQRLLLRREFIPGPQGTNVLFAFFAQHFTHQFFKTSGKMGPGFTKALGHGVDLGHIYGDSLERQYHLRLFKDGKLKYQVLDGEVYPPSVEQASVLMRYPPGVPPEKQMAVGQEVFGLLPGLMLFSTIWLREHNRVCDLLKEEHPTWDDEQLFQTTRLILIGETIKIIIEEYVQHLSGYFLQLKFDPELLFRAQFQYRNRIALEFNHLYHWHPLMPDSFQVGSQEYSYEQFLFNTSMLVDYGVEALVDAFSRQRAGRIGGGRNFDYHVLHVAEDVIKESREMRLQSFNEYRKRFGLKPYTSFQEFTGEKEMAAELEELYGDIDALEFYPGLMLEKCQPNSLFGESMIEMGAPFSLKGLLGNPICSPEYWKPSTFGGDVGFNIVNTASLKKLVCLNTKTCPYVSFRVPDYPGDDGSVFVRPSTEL

[10] = target: T5, Amine oxidase [flavin-containing] A (Homo sapiens, UniProt P21397); format: functional
T5 sequence (P21397 whole entry): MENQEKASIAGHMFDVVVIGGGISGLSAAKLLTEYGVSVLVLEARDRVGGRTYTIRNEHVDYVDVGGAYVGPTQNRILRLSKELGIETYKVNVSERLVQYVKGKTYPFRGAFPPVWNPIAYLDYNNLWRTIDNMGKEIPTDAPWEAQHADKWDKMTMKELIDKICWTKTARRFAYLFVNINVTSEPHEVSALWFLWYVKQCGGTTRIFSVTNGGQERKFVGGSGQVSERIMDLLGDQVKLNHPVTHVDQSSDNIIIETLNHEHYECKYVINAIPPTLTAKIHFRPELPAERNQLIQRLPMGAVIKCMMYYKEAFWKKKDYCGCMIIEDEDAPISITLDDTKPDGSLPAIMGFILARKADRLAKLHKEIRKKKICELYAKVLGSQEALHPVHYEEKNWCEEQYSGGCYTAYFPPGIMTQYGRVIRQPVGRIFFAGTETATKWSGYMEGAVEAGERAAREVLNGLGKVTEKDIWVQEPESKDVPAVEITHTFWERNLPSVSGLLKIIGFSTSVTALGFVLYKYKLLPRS

[11] = target: Vasopressin V1a receptor (Homo sapiens, UniProt P37288)
Vasopressin V1a receptor, sequence (P37288 whole entry): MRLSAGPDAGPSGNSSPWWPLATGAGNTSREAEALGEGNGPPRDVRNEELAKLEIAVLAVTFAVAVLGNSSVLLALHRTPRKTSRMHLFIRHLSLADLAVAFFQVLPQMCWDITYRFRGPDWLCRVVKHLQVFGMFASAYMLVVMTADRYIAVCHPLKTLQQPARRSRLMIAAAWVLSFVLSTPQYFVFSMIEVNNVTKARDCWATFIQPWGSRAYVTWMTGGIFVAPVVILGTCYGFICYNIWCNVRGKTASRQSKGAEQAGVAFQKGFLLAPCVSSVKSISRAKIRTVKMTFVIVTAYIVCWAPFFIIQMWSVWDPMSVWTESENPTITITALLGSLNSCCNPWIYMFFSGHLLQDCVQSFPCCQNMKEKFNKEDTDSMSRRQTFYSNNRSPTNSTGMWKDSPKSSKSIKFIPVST

[12] = target: cGMP-inhibited 3',5'-cyclic phosphodiesterase 3A (Homo sapiens, UniProt Q14432); format: functional
cGMP-inhibited 3',5'-cyclic phosphodiesterase 3A, sequence (Q14432 whole entry): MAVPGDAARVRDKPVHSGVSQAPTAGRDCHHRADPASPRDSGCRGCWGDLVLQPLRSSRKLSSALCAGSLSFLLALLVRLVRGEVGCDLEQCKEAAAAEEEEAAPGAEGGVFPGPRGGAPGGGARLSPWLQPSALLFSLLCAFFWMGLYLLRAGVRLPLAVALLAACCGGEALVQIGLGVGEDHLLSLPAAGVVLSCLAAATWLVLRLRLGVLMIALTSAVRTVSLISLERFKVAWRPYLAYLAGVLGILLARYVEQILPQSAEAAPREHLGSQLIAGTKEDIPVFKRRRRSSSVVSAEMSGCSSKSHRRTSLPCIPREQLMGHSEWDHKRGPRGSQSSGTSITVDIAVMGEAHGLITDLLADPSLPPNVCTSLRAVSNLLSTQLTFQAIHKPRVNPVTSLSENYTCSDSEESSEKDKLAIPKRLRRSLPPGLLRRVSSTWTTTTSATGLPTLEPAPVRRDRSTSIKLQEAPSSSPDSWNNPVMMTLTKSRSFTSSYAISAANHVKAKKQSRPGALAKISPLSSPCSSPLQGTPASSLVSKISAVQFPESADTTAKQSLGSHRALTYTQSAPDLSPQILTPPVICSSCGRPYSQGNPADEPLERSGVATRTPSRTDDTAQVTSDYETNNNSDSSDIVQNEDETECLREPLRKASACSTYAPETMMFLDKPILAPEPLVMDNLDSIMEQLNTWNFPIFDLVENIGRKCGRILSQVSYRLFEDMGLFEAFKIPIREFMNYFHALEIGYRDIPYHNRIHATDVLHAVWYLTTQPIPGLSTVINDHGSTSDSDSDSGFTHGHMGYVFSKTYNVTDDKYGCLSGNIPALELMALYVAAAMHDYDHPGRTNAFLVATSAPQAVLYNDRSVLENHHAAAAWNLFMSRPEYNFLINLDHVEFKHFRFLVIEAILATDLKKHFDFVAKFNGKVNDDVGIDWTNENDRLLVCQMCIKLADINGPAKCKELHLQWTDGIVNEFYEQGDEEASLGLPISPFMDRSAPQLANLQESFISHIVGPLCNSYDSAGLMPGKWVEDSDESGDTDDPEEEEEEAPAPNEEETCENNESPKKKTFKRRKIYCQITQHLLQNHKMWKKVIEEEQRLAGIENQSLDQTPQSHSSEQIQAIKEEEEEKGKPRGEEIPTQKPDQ

[13] = target: Gamma-aminobutyric acid receptor subunit alpha-1 (Rattus norvegicus, UniProt P62813); format: functional
Gamma-aminobutyric acid receptor subunit alpha-1, sequence (P62813 whole entry): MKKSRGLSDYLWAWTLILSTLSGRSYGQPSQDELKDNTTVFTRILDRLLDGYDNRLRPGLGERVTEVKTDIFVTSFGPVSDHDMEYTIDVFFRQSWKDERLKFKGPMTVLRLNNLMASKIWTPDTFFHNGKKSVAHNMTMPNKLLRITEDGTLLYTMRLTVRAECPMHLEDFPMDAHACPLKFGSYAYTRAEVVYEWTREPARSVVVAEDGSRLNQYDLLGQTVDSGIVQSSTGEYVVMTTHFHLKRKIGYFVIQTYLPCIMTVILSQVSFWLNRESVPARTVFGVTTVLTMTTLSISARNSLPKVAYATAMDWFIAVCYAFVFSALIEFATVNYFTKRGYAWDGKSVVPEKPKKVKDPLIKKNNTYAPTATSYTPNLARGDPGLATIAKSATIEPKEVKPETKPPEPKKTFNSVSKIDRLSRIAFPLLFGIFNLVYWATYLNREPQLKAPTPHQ
Note: assay procedure not described here.

COc1ccccc1Oc1c(NS(=O)(=O)c2ccc(C(C)(C)C)cc2)nc(-c2ncccn2)nc1OCCO [BOSENTAN]
AC50 [1]: > 30 µM
AC50 [2]: > 30 µM
AC50 [3]: > 30 µM
AC50 [4]: > 30 µM
AC50 [5]: > 10 µM
AC50 [6]: > 30 µM
AC50 [7]: > 10 µM
AC50 [8]: > 30 µM
AC50 [9]: > 30 µM
AC50 [10]: > 10 µM
AC50 [11]: > 30 µM
AC50 [12]: > 30 µM
AC50 [13]: > 10 µM

O=C1CCc2cc(OCCCCc3nnnn3C3CCCCC3)ccc2N1 [CILOSTAZOL]
AC50 [1]: > 30 µM
AC50 [2]: > 30 µM
AC50 [3]: > 30 µM
AC50 [4]: > 30 µM
AC50 [5]: > 30 µM
AC50 [6]: > 30 µM
AC50 [7]: 3.06 µM
AC50 [8]: 18.2 µM
AC50 [9]: > 30 µM
AC50 [10]: > 30 µM
AC50 [12]: 0.424 µM
AC50 [13]: > 30 µM

Nc1ccc(S(=O)(=O)Nc2nccs2)cc1 [SULFATHIAZOLE]
AC50 [1]: > 30 µM
AC50 [2]: > 10 µM
AC50 [3]: > 30 µM
AC50 [4]: > 30 µM
AC50 [5]: > 10 µM
AC50 [6]: > 10 µM
AC50 [7]: > 10 µM
AC50 [8]: > 30 µM
AC50 [9]: > 30 µM
AC50 [10]: > 10 µM
AC50 [11]: > 10 µM
AC50 [12]: > 30 µM
AC50 [13]: > 10 µM

O=C1C(CC[S+]([O-])c2ccccc2)C(=O)N(c2ccccc2)N1c1ccccc1 (stereo unspecified) [SULFINPYRAZONE]
AC50 [1]: > 30 µM
AC50 [2]: > 10 µM
AC50 [3]: > 30 µM
AC50 [5]: > 10 µM
AC50 [6]: > 10 µM
AC50 [7]: > 10 µM
AC50 [8]: > 10 µM
AC50 [9]: > 10 µM
AC50 [10]: > 10 µM
AC50 [11]: > 10 µM
AC50 [12]: > 30 µM
AC50 [13]: > 10 µM

C[C@@H](NCCCc1cccc(C(F)(F)F)c1)c1cccc2ccccc12
AC50 [1]: > 30 µM
AC50 [2]: 6.4 µM
AC50 [3]: 2.5 µM
AC50 [4]: > 30 µM
AC50 [6]: 7.2 µM
AC50 [7]: > 30 µM
AC50 [8]: 8.1 µM
AC50 [9]: > 30 µM
AC50 [10]: > 30 µM
AC50 [11]: > 30 µM
AC50 [12]: > 30 µM
AC50 [13]: > 30 µM

C[C@H]1c2cccc(O)c2C(=O)C2=C(O)[C@]3(O)C(=O)C(C(N)=O)=C(O)[C@@H](N(C)C)[C@@H]3[C@@H](O)[C@@H]21 [DOXYCYCLINE]
AC50 [1]: > 30 µM
AC50 [2]: > 10 µM
AC50 [3]: > 30 µM
AC50 [4]: > 30 µM
AC50 [5]: > 10 µM
AC50 [6]: > 10 µM
AC50 [7]: > 10 µM
AC50 [8]: > 30 µM
AC50 [9]: > 30 µM
AC50 [10]: > 10 µM
AC50 [11]: > 10 µM
AC50 [12]: > 30 µM
AC50 [13]: > 10 µM

CO[C@H]1/C=C/O[C@@]2(C)Oc3c(C)c(O)c4c(O)c(c(/C=N/N5CCN(C)CC5)c(O)c4c3C2=O)NC(=O)/C(C)=C\C=C\[C@H](C)[C@H](O)[C@@H](C)[C@@H](O)[C@@H](C)[C@H](OC(C)=O)[C@@H]1C [RIFAMPIN]
AC50 [1]: > 30 µM
AC50 [2]: 20 µM
AC50 [3]: 8 µM
AC50 [4]: > 30 µM
AC50 [5]: > 30 µM
AC50 [6]: 20 µM
AC50 [7]: > 30 µM
AC50 [8]: 27 µM
AC50 [9]: > 30 µM
AC50 [10]: > 30 µM
AC50 [11]: 26.7 µM
AC50 [12]: 18.3 µM
AC50 [13]: > 30 µM

C[C@H](CCC(=O)O)[C@H]1CC[C@H]2[C@@H]3[C@@H](O)C[C@@H]4C[C@H](O)CC[C@]4(C)[C@H]3CC[C@]12C [URSODIOL]
AC50 [1]: > 30 µM
AC50 [2]: > 30 µM
AC50 [3]: > 30 µM
AC50 [6]: > 30 µM
AC50 [8]: > 30 µM
AC50 [9]: > 30 µM
AC50 [10]: > 30 µM
AC50 [11]: > 30 µM
AC50 [12]: > 30 µM
AC50 [13]: > 30 µM

CN(C)CCc1c[nH]c2ccc(Cn3cncn3)cc12 [RIZATRIPTAN]
AC50 [1]: > 30 µM
AC50 [2]: > 10 µM
AC50 [3]: > 10 µM
AC50 [4]: > 30 µM
AC50 [5]: > 10 µM
AC50 [6]: > 10 µM
AC50 [7]: > 30 µM
AC50 [8]: > 30 µM
AC50 [9]: > 30 µM
AC50 [10]: > 30 µM
AC50 [11]: > 10 µM
AC50 [12]: > 30 µM
AC50 [13]: > 30 µM

C[C@]12C=CC(=O)N[C@@H]1CC[C@@H]1[C@@H]2CC[C@]2(C)[C@@H](C(=O)Nc3cc(C(F)(F)F)ccc3C(F)(F)F)CC[C@@H]12 [DUTASTERIDE]
AC50 [1]: > 30 µM
AC50 [2]: > 10 µM
AC50 [3]: > 30 µM
AC50 [5]: > 10 µM
AC50 [6]: > 10 µM
AC50 [7]: > 10 µM
AC50 [8]: > 10 µM
AC50 [9]: > 10 µM
AC50 [10]: > 10 µM
AC50 [11]: > 10 µM
AC50 [12]: > 30 µM
AC50 [13]: > 30 µM

COc1ccccc1OCCNCC(O)COc1cccc2[nH]c3ccccc3c12 (stereo unspecified) [CARVEDILOL]
AC50 [1]: 0.3 µM
AC50 [2]: 4.53 µM
AC50 [3]: 1.7 µM
AC50 [4]: > 30 µM
AC50 [5]: > 10 µM
AC50 [6]: 3.99 µM
AC50 [7]: 18.9 µM
AC50 [8]: 18.6 µM
AC50 [9]: > 30 µM
AC50 [10]: > 10 µM
AC50 [11]: > 30 µM
AC50 [12]: > 30 µM
AC50 [13]: > 10 µM

CC(C)c1nc(N(C)S(C)(=O)=O)nc(-c2ccc(F)cc2)c1/C=C/[C@@H](O)C[C@@H](O)CC(=O)O [ROSUVASTATIN]
AC50 [1]: > 30 µM
AC50 [2]: > 30 µM
AC50 [3]: > 30 µM
AC50 [4]: > 30 µM
AC50 [6]: > 30 µM
AC50 [7]: > 30 µM
AC50 [8]: > 30 µM
AC50 [9]: > 30 µM
AC50 [10]: > 30 µM
AC50 [11]: > 30 µM
AC50 [12]: > 30 µM
AC50 [13]: > 30 µM

CC(C)N(CCC(C(N)=O)(c1ccccc1)c1ccccn1)C(C)C (stereo unspecified) [DISOPYRAMIDE]
AC50 [1]: > 30 µM
AC50 [2]: > 30 µM
AC50 [3]: > 30 µM
AC50 [4]: > 30 µM
AC50 [5]: > 10 µM
AC50 [6]: > 30 µM
AC50 [7]: 6.73 µM
AC50 [8]: > 30 µM
AC50 [9]: 13.6 µM
AC50 [10]: > 10 µM
AC50 [11]: > 30 µM
AC50 [12]: 5.4 µM
AC50 [13]: > 10 µM

Reference: ChEMBL document CHEMBL5291721, “A preclinical secondary pharmacology resource illuminates target-adverse drug reaction associations of marketed drugs” (Nat Commun, 2023)
